Blank lines part the entries; values can stand above or below the molecule they belong to. Where no end group is shown, it is not given here.
How the values were obtained:
[1] = target: T1, H3 protease activity in fraction #23 (Mus musculus, UniProt P06797); experiment: In vitro H3 cleavage assay of hydroxyapatite fraction #23 +/- protease inhibitors; format: biochemical
T1 construct: a double chain mature form at ˜25 kD and ˜5 kD; endogenous in cells; host or cells: chromatin of 3 days +RA differentiating mouse ESCs (LF2), hydroxyapatite fraction #23
T1 sequence (P06797 114-288 limits assumed): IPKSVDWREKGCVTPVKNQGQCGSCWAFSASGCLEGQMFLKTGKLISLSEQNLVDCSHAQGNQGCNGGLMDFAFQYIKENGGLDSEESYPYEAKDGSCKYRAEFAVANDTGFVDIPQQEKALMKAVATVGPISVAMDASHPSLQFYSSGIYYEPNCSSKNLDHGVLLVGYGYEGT
T1 sequence (P06797 291-334 limits assumed): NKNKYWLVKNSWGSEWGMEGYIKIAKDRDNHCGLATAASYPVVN
Method: (§1) Extracts were incubated in buffer (10 mM HEPES, 10 mM KCl, 1.5 mM MgCl2, 0.34M sucrose, 10% glycerol, 5 mM β-mercaptoethanol, all final) with 0.1 μg/μl rH3-HIS (purified from E. coli) and incubated at 37° C. for 1-3 hours. Reactions were stopped by addition of 5×SDS sample buffer and boiling; results were analyzed by immunoblotting with HIS-HRP and/or H3.cs1 antibody. For MS analysis, reactions were quenched by addition of 0.1% (final) TFA. rCathepsin L (R&D Systems, # 1515-CY-010), rCathepsin B (R&D Systems Cat No. BAF965), and rCathepsin K (Calbiochem Cat. No. 342001) were purchased from commercial sources and tested in the assay with rH3-HIS.
Three days+RA differentiating ESC chromatin pellets were solubilized by sonication in buffer A (80 mM NaPO^−4, 200 mM NaCl), injected onto a 2 or 5 mL hydroxyapatite column (BioRad), and fractionated with a 200 mM to 2M NaCl gradient. Each fraction was then assayed as described above. […] Digest was then acidified with glacial acetic acid and aliquots of samples were analyzed using an LTQ-FT as described above. Data was searched against a mouse database using SEQUEST (Eng et al., Journal of the American Society of Mass Spectrometry 5:976-989 (1994), which is hereby incorporated by reference in its entirety). All spectra of interest were manually validated.
To validate further the identification of Cathepsin L as a histone H3 protease, the enriched fractions were tested with different classes of protease inhibitors in the H3 cleavage assay.

[2] = target: T2, Recombinant mouse Cathepsin L (Mus musculus, UniProt P06797); experiment: Inhibition of recombinant mouse Cathepsin L cleavage of rH3-HIS by E64 (immunoblot, FIG. 13); format: biochemical; settings: pH 7.5 and pH 5.5; E64 10 μM, 50 μM, and 500 μM
T2 construct: purchased R&D Systems 1515-CY-010
T2 sequence (P06797 114-334): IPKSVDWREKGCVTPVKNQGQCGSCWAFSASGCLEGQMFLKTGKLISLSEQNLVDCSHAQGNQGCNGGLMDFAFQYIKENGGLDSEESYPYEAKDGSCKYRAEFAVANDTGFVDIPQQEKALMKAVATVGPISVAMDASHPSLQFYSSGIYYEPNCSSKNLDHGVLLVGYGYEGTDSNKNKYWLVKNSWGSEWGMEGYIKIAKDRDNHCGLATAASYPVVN
Method: Recombinant mouse Cathepsin L was incubated with C-terminally HIS-tagged recombinant histone H3 at both pH 7.5 (left) and pH 5.5 (right) in either buffer alone (−) or in the presence of the cysteine protease inhibitor E64 (+); the final concentration of E64 was 10 μM, 50 μM, and 500 μM.
as §1

cathepsin L = cathepsin L (Homo sapiens, UniProt P07711); settings: cited from earlier work
Chain of cathepsin L (P07711 114-333, species assumed): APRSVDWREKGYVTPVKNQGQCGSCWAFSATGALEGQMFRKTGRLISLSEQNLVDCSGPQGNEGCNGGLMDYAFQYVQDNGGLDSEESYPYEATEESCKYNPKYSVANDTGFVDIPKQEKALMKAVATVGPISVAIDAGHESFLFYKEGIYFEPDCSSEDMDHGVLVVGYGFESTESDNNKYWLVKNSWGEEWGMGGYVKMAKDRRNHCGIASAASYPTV

cathepsin D = cathepsin D (Homo sapiens, UniProt P07339); settings: cited from earlier work
Chain of cathepsin D (P07339 65-412): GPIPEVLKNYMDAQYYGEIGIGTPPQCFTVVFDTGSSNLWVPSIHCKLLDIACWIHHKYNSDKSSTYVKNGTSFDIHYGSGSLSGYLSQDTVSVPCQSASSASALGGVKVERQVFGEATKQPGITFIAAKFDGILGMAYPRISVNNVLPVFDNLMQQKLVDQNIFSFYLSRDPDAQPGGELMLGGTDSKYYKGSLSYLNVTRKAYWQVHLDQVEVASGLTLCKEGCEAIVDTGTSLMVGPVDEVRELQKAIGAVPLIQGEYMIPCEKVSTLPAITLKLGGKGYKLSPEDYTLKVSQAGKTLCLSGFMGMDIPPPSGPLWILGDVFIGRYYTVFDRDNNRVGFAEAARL

Cbx7-CD protein = target: T3, Cbx7-CD protein (Mus musculus, UniProt Q8VDS3); experiment: Fluorescence anisotropy of Cbx7-CD binding to H3 peptides; settings: p<0.01
T3 construct: the chromodomain of mouse CBX7; made in house
T3 sequence (Q8VDS3 11-69 limits assumed): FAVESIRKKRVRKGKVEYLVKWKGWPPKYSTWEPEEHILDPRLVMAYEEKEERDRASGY
Method: FIG. 7A is an immunoblot showing cleavage of the modified recombinant histone 3 substrates following incubation with rCathepsin L. The four rH3 substrates used in the cleavage assay include: 1=rH3 unmodified, 2=rH3 alkylated to K27me2, 3=rH3 pan-acetylated with acetic anhydride, 4=rH3+K27me2 pan-acetylated with acetic anhydride. FIG. 7B is a graph showing the amount of recombinant H3 cleavage product formed following incubation with Cathepsin L. H3 cleavage reactions were performed as in FIG. 7A using synthesized H3 peptides representing amino acids 15 to 31. Reactions were incubated with ˜250 pmol peptide and quenched with 0.1% TFA before being plated in duplicate for ELISA with the H3cs.1 antibody. Signal was normalized to that of mock reactions for each peptide. Results represent three independent experiments. […] Binding decreases 3-fold with cleaved peptide. p<0.01. Kds are in μM±SEM. Data points represent the mean±SD
What effect the cleavage of the H3 tail, a proteolytic modification rather than a covalent modification, might have on the binding of effector proteins was examined. […]

[3] = target: T4, chromodomain of mouse CBX7 (Mus musculus, UniProt Q8VDS3); experiment: Peptide pull-down assay; format: binding; settings: cleaved vs non-cleaved H3 tail peptide
T4 construct: the chromodomain of mouse CBX7; made in house
T4 sequence (Q8VDS3 11-69 limits assumed): T3 sequence (Q8VDS3 11-69 limits assumed)
Method: Peptide pull-down assays were performed as described Wysocka, J. “Identifying Novel Proteins Recognizing Histone Modifications Using Peptide Pull-down Assay,” Methods 40:339-343 (2006), which is hereby incorporated by reference in its entirety, using biotinylated peptides conjugated to streptavidin agarose beads (Pierce Cat. No. 20349). Elutions were loaded onto 10 or 15% SDS-PAGE gels and silver stained.
What effect the cleavage of the H3 tail, a proteolytic modification rather than a covalent modification, might have on the binding of effector proteins was examined. Given that K27 methylation is a well-documented binding site for the chromodomain-containing protein Polycomb (Bernstein et al., “Mouse Polycomb Proteins Bind Differentially to Methylated Histone H3 and RNA and are Enriched in Facultative Heterochromatin,” Mol Cell Biol 26:2560-2569 (2006) and Fischle et al., “Molecular Basis for the Discrimination of Repressive Methyl-lysine Marks in Histone H3 by Polycomb and HP1 Chromodomains,” Genes Dev 17:1870-1881 (2003), which are hereby incorporated by reference in their entirety), the effect of H3 cleavage on Pc binding to H3K27 methylation was tested. […]

H3 cleavage activity ([1]; E64 10 μM, lowest concentration tested): all cleavage was abolished
Molecule: CC(C)C[C@H](NC(=O)[C@H]1O[C@@H]1C(=O)O)C(=O)NCCCCN=C(N)N (relative stereo) [E64, L-trans-Epoxysuccinyl-leucylamido(4-guanidino)butane]
inhibition of H3 protease activity in fraction #23 ([1]; FIG. 4A): potent inhibitor of the H3 protease activity | inhibition of recombinant mouse Cathepsin L (rH3-HIS cleavage) [2]: inhibition of recombinant mouse Cathepsin L

Molecule: NC(N)=O [Urea]
enhancement of cathepsin L activity, factor (cathepsin L): 2.5 | enhancement of cathepsin D activity, factor (cathepsin D): 6

decrease in Cbx7-CD binding vs non-cleaved peptide (amino acid residues 18-37) (Cbx7-CD protein): 3 fold | CBX7 binding to methylated H3K27 [3]: greatly diminished
Molecule: cleaved peptide: peptide mimicking the cleaved H3 tail, amino acid residues 22-37, K27 methylated (TKAARK(Me)SAPATGGVKK; not fully specified)
